Experimental data as given in US20180193361A1, “GUT ANTI-INFLAMMATORY AGENTS FOR REGULATION OF HIGH BLOOD GLUCOSE LEVELS” (UNIVERSITY HEALTH NETWORK, priority 2015, published 2018).

Tests used:
[1] = system: spleen and blood immune cells, serum cytokines; assay: Systemic immune function during HFD feeding (spleen, blood, serum cytokines); format: in vivo, mice; settings: HFD vs HFD 5-ASA
Experimental: We stained single cell suspensions for 30 min on ice with commercial antibodies. Flow cytometry antibodies including CD45.2 (104), CD3 (145-2C11), CD4 (GK1.5), CD8 (53-6.7), CD25 (PC61), γδTcR (GL3), Foxp3 (150D), IL-17 (TC11-18H10.1), IFNγ XMG1.2), α4β7 (DATK32), CCR9 (CW-1.2), CD11b (M1/70), F4/80 (BM8), CD11c (N418), CD206 (C068C2), Gr-1 (RB6-8C5), IL-7Rα (A7R34), B220 (RA3-6B2), Thy1.2 (30-H12), NKp46 (29A1.4), and Sca-1 (D7) were purchased from Biolegend. Intracellular staining was performed using a Foxp3 staining buffer kit (eBioscience). We acquired data on a Fortessa flow cytometer (BD Biosciences) and analyzed it with FlowJo software (Tree Star). We gated ILCs as described (Kirchberger et al., 2013).
We measured serum cytokines by Luminex Multiplex cytokine assay (Millipore, run by the UHN Microarray Center), and quantified IL-10 and IFN-γ in supernatants of anti-CD3/CD28-stimulated splenocytes or bowel immune cells (Winer et al., 2009b) by ELISA (Biolegend).

[2] = HPLC of 5-ASA in serum and tissues with internal 4-ASA standard; format: in vivo, mice; settings: mouse, colon and small bowel relative to serum, oral
Experimental: We cut frozen tissues and homogenized them in 80% methanol (30 mg/mL) on ice. We spiked 100 μL aliquots with 4-ASA used as internal standard (200 ng), and 400 μL 80% methanol were added. For plasma, we thawed samples from −80° C. at room temperature. 75 μL plasma were spiked with 4-ASA used as internal standard (200 ng) and mixed with 300 μL of methanol for 5 minutes (vortex). Samples were centrifuged (20,000×g, 15 minutes, 4° C.). Supernatants were separated from the pellets and taken to dryness under nitrogen gas in the fumehood. We then reconstituted the dry residues in 200 μL of mobile phase, vortexed for 1 minute and centrifuged at 20,000×g for 15 minutes. The supernatants were transferred to autosampler vials fitted with inserts and sealed caps. Aliquots of the solution were injected into HPLC for analysis.
We performed high performance liquid chromatography using a Dionex Ultimate 3000 system equipped with a binary pump, a built-in autosampler, a photodiode array and a RF 2000 fluorescence detector. […] The analytes were monitored by fluorescence (excitation: 337 nm and emission: 432 nm) and by (UV235 nm). We analyzed the chromatograms produced using Chromeleon version 6.8 software.

gut bacteria = assay: Gut microbiome sequencing; format: in vivo; settings: HFD 5-ASA-fed mice
Experimental: We amplified the V4 hypervariable region of the 16S rRNA gene using a universal forward sequencing primer and a uniquely barcoded reverse sequencing primer to allow for multiplexing (Caporaso et al., 2012). Primers contained an adapter sequence to bind the amplicons to the Illumina flow cell. PCR-based library construction was performed in triplicate 25 μl solutions containing 1×KAP[…] Robust HotStart ReadyMix, 600 nM each of primer, and 1 μl of DNA template. For every PCR reaction sterile dH2O was used as a negative control to ensure no contaminating DNA was present. PCR conditions were 95° C. for 3 min, followed by 18 cycles of 95° C. for 15 s, 58° C. for 15 s, 72° C. for 15 s and were completed at 72° C. for 5 min. All PCR reactions were run on a 1% agarose gel to visualize the amplification and approximate DNA quantity. Individual barcoded samples from the triplicates were pooled by approximately even concentrations to create the final library. The final library was purified using 0.8 volumes of Agencourt AMPure XP beads (Beckman Coulter, Indianapolis, Ind.) according to the manufacturer's protocol and quantified using the Qubit Fluorometer. The final library was prepared according to the MiSeq user guide, diluted to a concentration of 7 pM and combined with a 5% PhiX control. Sequencing was performed using the V2 (150 bp×2) chemistry and sequenced on the Illumina MiSeq (Illumina, San Diego, Calif.).

Rag1null mice = assay: Metabolic studies, Rag1null mice on HFD 5-ASA; format: in vivo; settings: HFD vs HFD 5-ASA 1500 mg/kg/day, 8 weeks
Experimental: Mice. Mice were fed either NCD (15 kcal % fat) or HFD (Research Diets, 60 kcal % fat, irradiated) starting at 6 weeks of age. All studies were performed under the approval of Animal User Protocols by the Animal Care Committee at the University Health Network. Mice were maintained in a pathogen-free, temperature-controlled environment on a 12-hour light and dark cycle. All mice used in comparative studies were male, age-matched, and litter mates where possible.
We measured body weights, GTTs, ITTs, serum insulin, and fat cell diameter as previously described (Winer et al., 2009a). All GTTs were performed with a 1.5 g/kg glucose i.p. injection unless indicated otherwise.

Question: Which “circulating immune cell polarity in the blood” value ([1]; 14 weeks) does the source give for `Nc1ccc(O)c(C(=O)O)c1` [5-ASA, 5-aminosalicylic acid] here?
Answer: Its value is “no effects”.

Question: And the “immune cell populations in the spleen” value ([1]; 14 weeks)?
Answer: The value was “no effects”.

Question: What about the “serum levels of cytokines” value ([1]; Luminex, 23 cytokines, 14 weeks) of the same compound?
Answer: Its value is “mostly unchanged”.

Question: What about the “serum RANTES” value ([1]; Luminex, 14 weeks) of the same compound?
Answer: The value was “significant but small increase”.

Question: What about the “serum TNFα” value ([1]; Luminex, 14 weeks) of the same compound?
Answer: The value was “reduction”.

Question: And the “stimulated spleen immune cell cytokine secretion” value ([1]; cultured splenocytes, anti-CD3/CD28 48 hrs)?
Answer: Its value is “no effects”.

Question: What about the Kp [2] of the same compound?
Answer: The Kp was about 20.

Question: What about the Clostridiales (gut bacteria) of the same compound?
Answer: The Clostridiales was “increased”.

Question: What about the Firmicutes (gut bacteria) of the same compound?
Answer: The Firmicutes was “increased”.

Question: What about the “abundance of Ruminococcaceae” value (gut bacteria) of the same compound?
Answer: Its value is “increased”.

Question: And the bacterial diversity (gut bacteria)?
Answer: The bacterial diversity was “increased”.

Question: What about the IR (Rag1null mice) of the same compound?
Answer: The IR was “no effect”.

Question: What about the body weight (Rag1null mice) of the same compound?
Answer: Its body weight is “no effect”.

Question: And the glucose tolerance (Rag1null mice)?
Answer: The glucose tolerance was “no effect”.
